From patent US20210283089A1, “Use of fumaric acid esters and pharmaceutically acceptable salts thereof in preparing pharmaceuticals for treating ferroptosis-related diseases” (XIANGYA HOSPITAL CENTRAL SOUTH UNIVERSITY, priority 2018, published 2021)
Counter-ions that a name gives are not always drawn.

Tests used:
HepG2 cells = assay: GSH and GSSG level determination test; type: cell-based, Human; settings: 10 μM and 30 μM, incubated 20 h; concentration-dependent
Experimental: Human hepatocytes HepG2 and LO2 cells are obtained from the cell bank of Xiangya Hospital. The medium is DMEM medium (HyClone, SH30022.01) and RPMI medium (HyClone, SH30809.01) containing 10% fetal bovine serum (Gibco, 10091148) and 100 U/mL ampicillin+streptomycin double-antibody (Gibco, 10378016). The cell incubator conditions are 37° C., constant temperature and humidity, and constant carbon dioxide concentration of 5%. Monolayer adherent HepG2 cells are digested with a trypsin into single-cell suspension, and the cells are plated on a 96-well plate at 4000 cells/well. After the cells are adhered for 4-6 h, DMSO, 10 μM of dimethyl fumarate, 30 μM of dimethyl fumarate, 10 μM of monomethyl fumarate and 30 μM of monomethyl fumarate are respectively added to the cell culture plate, and incubated for 20 h, GSH/GSSG-Glo™ Assay Kit (Promega, V6611) is used to detect the total GSH and GSSH of the cells. Specific operations are performed according to the instructions, and the experiment is repeated for three times.

HepG2 and LO2 cells = assay: Determination test of cell membrane lipid peroxidation level (MDA detection kit); type: cell-based, Human; settings: 6 h; for cell membrane lipid peroxidation level (stimulus alone): 80 mM ethanol or 10 μM DOX alone
Experimental: Human hepatocytes HepG2 and LO2 cells are obtained from the cell bank of Xiangya Hospital. The medium is DMEM medium (HyClone, SH30022.01) and RPMI medium (HyClone, SH30809.01) containing 10% fetal bovine serum (Gibco, 10091148) and 100 U/mL ampicillin+streptomycin double-antibody (Gibco, 10378016). The cell incubator conditions are 37° C., constant temperature and humidity, and constant carbon dioxide concentration of 5%. DMSO, 1 μM of Erastin, 80 mM of ethanol, 10 μM of DOX, 10 μM DOX+10 μM dimethyl fumarate, 10 μM DOX+10 μM monomethyl fumarate, 10 μM DOX+1 μM Ferrostatin-1, 80 mM ethanol+10 μM dimethyl fumarate, 80 mM ethanol+10 μM monomethyl fumarate, and 80 mM ethanol+1 μM Ferrostatin-1 are respectively added to monolayer adherent hepatocytes HepG2 and LO2 cells. After being incubated for 6 h, the cells are gently rinsed with PBS buffer pre-cooled at 4° C. for 3 times, and every 1 million cells are homogenized with 0.1 mL of IP lysate (Beyotime, […]), and supernatant is collected after centrifugation at 4° C. The cell membrane lipid peroxidation level is measured by MDA detection kit (Beyotime, […]), specific operations are performed according to the instructions, and the test is repeated for three times.

[1] = test system: GPX4 protein level of HepG2 and LO2 cells; assay: Western Blot test 1: GPX4 protein level, ethanol stimulation; type: cell-based, Human; settings: 6 h
Experimental: Human hepatocytes HepG2 and LO2 cells are obtained from the cell bank of Xiangya Hospital. The medium is DMEM medium (HyClone, SH30022.01) and RPMI medium (HyClone, SH30809.01) containing 10% fetal bovine serum (Gibco, 10091148) and 100 U/mL ampicillin+streptomycin double-antibody (Gibco, 10378016). The cell incubator conditions are 37° C., constant temperature and humidity, and constant carbon dioxide concentration of 5%. […] After being incubated for 6 h, the cells are gently rinsed with PBS buffer pre-cooled at 4° C. for 3 times, and then extracted for total protein of the cells with RI PA lysate (Beyotime, P0013B). Specific operations are performed according to the instructions. After the concentration of the extracted protein is determined by BCA protein concentration determination kit (Beyotime, [MUT]), it is stored at -20° C. for later use. Each group of protein sample and 2×Loading Buffer is prepared at a volume ratio of 1:1, and placed in a metal bath at 100° C. to boil and denature for 10 min, then placed on ice to cool for 5 min, and a sample is waited to be loaded. Specific operations are performed according to the instructions. The test is repeated for three times.

[2] = test system: GPX4 protein level of HepG2 and LO2 cells; assay: Western Blot test 2: GPX4 protein level, DOX stimulation; type: cell-based, Human; settings: 6 h
Experimental: The medium is DMEM medium (HyClone, SH30022.01) and RPMI medium (HyClone, SH30809.01) containing 10% fetal bovine serum (Gibco, 10091148) and 100 U/mL ampicillin+streptomycin double-antibody (Gibco, 10378016). The cell incubator conditions are 37° C., constant temperature and humidity, and constant carbon dioxide concentration of 5%. 10 μM of DOX, 10 μM DOX+10 μM dimethyl fumarate, 10 μM DOX+10 μM monomethyl fumarate, and 10 μM DOX+1 μM Ferrostatin-1 are respectively added to monolayer adherent hepatocytes HepG2 and LO2 cells. After being incubated for 6 h, the cells are gently rinsed with PBS buffer pre-cooled at 4° C. for 3 times, and then a total protein of the cells is extracted with RIPA lysate (Beyotime, P0013B). Specific operations are performed according to the instructions. After the concentration of the extracted protein is determined by BCA protein concentration determination kit (Beyotime, [MUT]), it is stored at -20° C. for later use. Each histone sample and 2×Loading Buffer are prepared at a volume ratio of 1:1, and placed in a metal bath at 100° C. to boil and denature for 10 min, then placed on ice to cool for 5 min, and a sample is waited to be loaded. Specific operations are performed according to the instructions. The test is repeated for three times.

[3] = test system: mouse liver of alcoholic fatty liver disease model; assay: Inhibition test of ferroptosis in mouse liver of alcoholic fatty liver disease model; type: in vivo, C57BL/6 male mice; settings: 100 mg/Kg or 200 mg/Kg, intragastric, once a day, 10 consecutive days; versus model group
Experimental: 24 8-week-old SPF-grade C57BL/6 male mice are randomly divided into 4 groups, namely a blank group, a model group, a model+low-dose dimethyl fumarate (100 mg/Kg) group and a model+high-dose dimethyl fumarate (200 mg/Kg) group. The mice are let free to drink Lieber-DeCarli control diet for 5 days to gradually adapt to liquid diet and tube feeding. Subsequently, the model group is allowed to drink freely with 5% (volume/volume) standard Lieber-DeCarli alcohol liquid diet for 10 days, while the control group uses isocaloric control diet. From the 11-th day, the model+administration group is respectively administrated with dimethyl fumarate (100 mg/Kg) and dimethyl fumarate (200 mg/Kg) by intragastric administration once a day for 10 consecutive days. After that, the mice are anesthetized with 5% chloral hydrate in abdominal cavity, and liver tissues are collected, partly fixed in 10% formalin, and partly stored in liquid nitrogen. Then the following tests are separately performed (the dimethyl fumarate in the drawings of the description is represented by DMF):
(§1) A specific method is as follows: a mouse liver tissue sample fixed in 10% formalin is dehydrated, paraffin-immersed and embedded, and the paraffin-embedded tissue is sectioned. […]
(§2) A specific method is as follows: the paraffin-embedded tissue sections are baked in a constant temperature oven at 65° C. for 60 min to dissolve the paraffin, and then sequentially put in xylene to dewax and be transparent, and hydrated in ethanol solution with the concentrations from high to low. After the tissue sections are rinsed with PBS solution, a reagent A in a ready-to-use immunohistochemical hypersensitive UltraSensitive™ SP kit (Maixin Biotech Company, KIT-9707) is respectively added dropwise to remove an endogenous peroxidase from the tissues, and a reagent B is blocked by goat serum. […]

[4] = test system: mouse liver of hepatic fibrosis model; assay: Inhibition test of ferroptosis in mouse liver of hepatic fibrosis model; type: in vivo, SD mice; settings: 15 mg/Kg or 25 mg/Kg, intragastric, once a day, 8 weeks; versus model group
Experimental: 36 7-week-old SPF-grade SD mice of 200-250 g are randomly divided into 4 groups, namely a control group, a model group, a model+low-dose dimethyl fumarate (15 mg/Kg) group and a model+high-dose dimethyl fumarate (25 mg/Kg) group. In the model group, subcutaneous injection of 0.3 ml/100 g of 40% CCI4 peanut oil solution is used for modeling twice a week. It is started from the second week, 10% alcohol is used as the only beverage, the mice are fed with a corn meal feed mixed with 0.5% cholesterol, and modeling is continuously performed for 8 weeks. At the same time of modeling, the model+administration group are respectively given with dimethyl fumarate (15 mg/Kg) and dimethyl fumarate (25 mg/Kg) once a day by intragastric administration for 8 consecutive weeks. After that, the mice are anesthetized with 5% chloral hydrate in abdominal cavity, and the liver tissues are collected, partly fixed in formalin, and partly stored in liquid nitrogen. Then the following tests are separately performed (the dimethyl fumarate in the drawings of the description is represented by DMF):
as §1, §2

[5] = 10 μM DOX + 10 μM test substance
[6] = 80 mM ethanol + 10 μM test substance

Row | SMILES | GSH level of the HepG2 cells (HepG2 cells) | GSSH level of the HepG2 cells (HepG2 cells) | cell membrane lipid peroxidation level caused by DOX (HepG2 and LO2 cells; [5]) | cell membrane lipid peroxidation level caused by ethanol (HepG2 and LO2 cells; [6]) | GPX4 protein level of ethanol-stimulated cells [1, 6] | GPX4 protein level of DOX-stimulated cells [2, 5] | fatty degeneration of the hepatocytes and pericentral periphlebitis (H&E staining) [3] | liver 4-HNE protein level (immunohistochemistry) [3] | liver GPX4 protein level (immunohistochemistry, Western blot) [3] | liver 4-HNE protein level (immunohistochemistry) [4] | liver GPX4 protein level (immunohistochemistry) [4] | liver pathological changes (fatty degeneration, necrosis, periportal inflammation, fibrosis; H&E and Sirius Red staining) [4] | cell membrane lipid peroxidation level (stimulus alone) (HepG2 and LO2 cells) | GPX4 protein level (DOX alone) ([2]; 10 μM DOX) | GPX4 protein level (ethanol alone) ([1]; 80 mM ethanol)
1 | COC(=O)/C=C/C(=O)OC [dimethyl fumarate, Dimethyl fumarate] | significantly up-regulate | significantly up-regulate | significantly inhibit | significantly inhibit | significantly up-regulate | significantly up-regulate | significantly reduced | significantly down-regulated | significantly up-regulated | significantly down-regulated | significantly up-regulated | significantly reduced |  |  | 
2 | COc1cccc2c1C(=O)c1c(O)c3c(c(O)c1C2=O)C[C@@](O)(C(=O)CO)C[C@@H]3O[C@H]1C[C@H](N)[C@H](O)[C@H](C)O1 [DOX, doxorubicin] |  |  |  |  |  |  |  |  |  |  |  |  | significantly up-regulate | significantly down-regulate | 
3 | CCO [ethanol] |  |  |  |  |  |  |  |  |  |  |  |  | significantly up-regulate |  | significantly down-regulate
